Results from publication PMC9848351, “Discovery of new pyridine-quinoline hybrids as competitive and non-competitive PIM-1 kinase inhibitors with apoptosis induction and caspase 3/7 activation capabilities” (Journal of Enzyme Inhibition and Medicinal Chemistry, 2023).

Assays:
[1] = system: Colon cancer cells (Caco-2); assay: MTT anticancer activity, Caco-2; format: cell-based, human; settings: for IC50: Homo sapiens, Caco-2, 72 h, MTT, mean ± SEM; for Caco-2 SI: selectivity index, Wi-38 versus Caco-2
Description: (§1) Anticancer effect of the above-mentioned compounds was evaluated using four human cancer cell lines. Colon cancer cells (Caco-2), myeloid leukaemia cell line (NFS-60), liver cancer cell line (HepG-2) and prostate cancer cell line (PC-3) using MTT method was used for assaying cell viability[26] (Supplementary Page S55).
(§2) All final compounds were evaluated against four human cancer cell lines namely; liver cancer (HepG2) (ATCC® HB-8065™), colon cancer (Caco-2) (ATCC® HTB-37™), leukaemia cancer (NFS-60) (ATCC® CRL-1838™), and prostate cancer (PC-3) (ATCC® CRL-1435™) using doxorubicin (Dox) as the reference drug being widely used in tumour management utilising microculture MTT assay, declared by Mosmann[26] (Table 1 in Supplementary Material, Figures 5–8).
(§3) Cytotoxicity of the tested compounds was evaluated using normal human lung fibroblast Wi-38 cell line compared to currently used anticancer drug (doxorubicin).
(§4) Firstly, Wi-38 cell line was subcultured in DMEM medium-contained 10% fetal bovine serum (FBS), then, seeded as 5x10^3 cells per well in 96-well cell culture plate and incubated at 37 °C in 5% CO 2 incubator. Serial concentrations of these compounds and doxorubicin (Dox) were incubat ed with Wi-38 cells for 72 h after 24 h for cell attachment. MTT method was used for assaying cell viability 25. Twenty microliters of 5 mg/ml MTT (Sigma, USA) was added to each well and the plate was incubated at 37 °C for 3 h. Then MTT solution was removed, 100 µl DMSO was used and the absorbance of each well was measured with a microplate reader ( BMG LabTech, Germany) at 570 nm. The effective concentration (IC 50) and safe dose (EC100) values of the tested compounds that cause 50% and 100% cell viability were estimated by the Graphpad Instat software.
(§5) Determination of the anticancer activity
(§6) Anticancer effect of the above-mentioned compounds was evaluated using four human cancer cell lines. Colon cancer cells (Caco-2) were maintained in DMEM (Lonza, USA) containing 10% FBS while myeloid leukemia cell line (NFS-60), liver cancer cell line (HepG-2) and prostate cancer cell line (PC-3) were cultured in RPMI-1640 (Lonza, USA) supplemented with 10% FBS. All cancer cells (5x10^3 cells/well) were seeded in sterile 96-well plates. After 24h, serial concentrations of the tested compounds and Dox were incubated with four cancer cell lines for 72 h at 37 °C in 5% CO2 incubator. MTT method was done as described above. The Graphpad Instat software was used for calculating the half maximal inhibitory concentration (IC50) values. Furthermore, phase contrast inverted microscope with a digital camera (Olympus, Japan) was used for investigating […]
(§7) safest anticancer compounds. […]

[2] = system: normal human lung fibroblast Wi-38 cell line; assay: MTT cytotoxicity on normal cells; format: cell-based; settings: Wi-38, 72 h, MTT, mean ± SEM; for EC50: Homo sapiens, 50% cell viability; for Wi-38 EC100: safe dose, 100% cell viability
Description: Cytotoxicity of the tested compounds was evaluated using normal human lung fibroblast Wi-38 cell line compared to currently used anticancer drug (doxorubicin) using MTT method was used for assaying cell viability[26] (Supplementary Page S55).
Cytotoxicity test is one of the biological evaluations and screening tests that use human normal and cancer cells in-vitro to observe the effect of the studied compounds on their growth using MTT-based cytotoxicity. Microculture MTT method[26] was used to determine cytotoxic activity of the newly synthesised compounds against normal human lung fibroblast (Wi-38) using doxorubicin (Dox) as standard anticancer drug. The highest IC50 and EC100 values illustrate that the compounds were safe on the proliferation of normal human cells. […]. page 47:
as §3
as §4, with “software. […]” for “software.”

[3] = system: liver cancer cell line (HepG-2); assay: MTT anticancer activity, HepG-2; format: cell-based, human; settings: Homo sapiens, HepG2; HepG-2, 72 h, MTT; mean ± SEM
Description: as §1
as §2, with “5–8). […]” for “5–8).”
(§8) MTT method was used for assaying cell viability 25. Twenty microliters of 5 mg/ml MTT (Sigma, USA) was added to each well and the plate was incubated at 37 °C for 3 h. Then MTT solution was removed, 100 µl DMSO was used and the absorbance of each well was measured with a microplate reader ( BMG LabTech, Germany) at 570 nm. The effective concentration (IC 50) and safe dose (EC100) values of the tested compounds that cause 50% and 100% cell viability were estimated by the Graphpad Instat software.
as §5, §6, §7

[4] = system: myeloid leukaemia cell line (NFS-60); assay: MTT anticancer activity, NFS-60; format: cell-based; settings: NFS-60, 72 h, MTT; mean ± SEM
Description: as §1
as §2, with “5–8). […]” for “5–8).”
as §8, §5, §6, §7

[5] = system: prostate cancer cell line (PC-3); assay: MTT anticancer activity, PC-3; format: cell-based, human; settings: Homo sapiens, 72 h, PC-3, 72 h, mean ± SEM
Description: as §1
as §2, with “5–8). […]” for “5–8).”
as §8, §5, §6, §7

PIM-2 kinase = PIM-2 kinase (Homo sapiens, UniProt Q9P1W9); assay: PIM-2 kinase inhibitory activity (Promega kinase assay kit)
PIM-2 kinase, sequence (Q9P1W9 whole entry): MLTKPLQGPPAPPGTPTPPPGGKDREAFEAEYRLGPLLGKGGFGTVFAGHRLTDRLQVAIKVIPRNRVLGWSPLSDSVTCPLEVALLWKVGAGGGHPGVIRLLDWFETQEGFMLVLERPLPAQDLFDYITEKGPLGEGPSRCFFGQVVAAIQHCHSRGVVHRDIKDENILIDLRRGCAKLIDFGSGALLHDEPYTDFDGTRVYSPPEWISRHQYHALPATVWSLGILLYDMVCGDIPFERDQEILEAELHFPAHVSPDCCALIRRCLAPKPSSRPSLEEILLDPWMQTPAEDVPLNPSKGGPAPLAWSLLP
Description: PIM-1 and PIM-2 kinase inhibitory activity
PIM-1 and PIM-2 kinase utilizing PIM-1 and PIM-2 Kinase Assay Kit – Promega Corporation catalog #V4032, following the manufacturer’s instructions 26

SMILES | melting point [°C] | IC50 [1] [nM] | Caco-2 SI [1] | EC50 [2] [nM] | Wi-38 EC100 [2] [µM] | IC50 [3] [nM] | IC50 [4] [nM] | IC50 [5] [nM] | IC50 (PIM-2 kinase) [nM]
COc1ccc2[nH]c(=O)c(-c3cc(-c4cccc(O)c4)nc(S)c3C#N)cc2c1 [14c, 6-(3-Hydroxyphenyl)-2-mercapto-4-(6-methoxy-2-oxo-1,2-dihydroquinolin-3-yl)pyridine-3-carbonitrile] | 278 to 280 | 84.2 ± 5 | 1.971 | 166 ± 9 | 0.0972 ± 0.005 | 55.7 | 96.5 ± 4 | 62.6 ± 0.1 | 
N#Cc1c(-c2cc3ccccc3[nH]c2=O)cc(-c2cccc(O)c2)nc1N [15a, 2-Amino-6-(3-hydroxyphenyl)-4-(2-oxo-1,2-dihydroquinolin-3-yl)pyridine-3-carbonitrile] | > 300 | 191 ± 19 | 1.058 | 202 ± 3 | 0.0663 ± 0.003 | 108 ± 7 | 247 ± 16 | 242 ± 37 | 
N#Cc1c(-c2cc3cc(Cl)ccc3[nH]c2=O)cc(-c2cccc(O)c2)nc1N [15b, 2-Amino-4-(6-chloro-2-oxo-1,2-dihydroquinolin-3-yl)-6-(3-hydroxyphenyl)pyridine-3-carbonitrile] | > 300 | 194 ± 2 | 1.361 | 264 ± 6 | 0.169 ± 0.009 | 299 ± 8 | 323 ± 7 | 196 ± 61 | 
COc1ccc2[nH]c(=O)c(-c3cc(-c4cccc(O)c4)nc(N)c3C#N)cc2c1 [15c, 2-Amino-6-(3-hydroxyphenyl)-4-(6-methoxy-2-oxo-1,2-dihydroquinolin-3-yl)pyridine-3-carbonitrile] | 259 to 260 | 141 ± 21 | 0.858 | 121 ± 2 | 0.101 ± 0.005 | 107 ± 11 | 122 ± 1 | 143 ± 13 | 
O=c1c(O)c(-c2ccc(O)c(O)c2)oc2cc(O)cc(O)c12 [Quercetin, reference compound] |  |  |  |  |  |  |  |  | 610
